Two molecules from ChEMBL document CHEMBL1201862, “PubChem BioAssay data set” (2004) can be followed below.

Activity calls are given as the source filed them.

Experiment [1] can be described thus: decrease of insulin promoter-GFP reporter – imaging, high-content screening, mouse beta cells (AID 1628). The format is functional. The following applies: MIN6.
Experiment [2] in a line: MIN6 cell viability loss – mouse insulinoma, cytotoxicity control, dose response (AID 2122).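 Note: confirmatory high-throughput counterscreen run to flag cytotoxic compounds.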 In kind it is functional.
In experiment [3] the target is Galanin receptor type 2 (Homo sapiens, UniProt O43603). As to the kind of experiment: Dose Response cell-based high-throughput screening assay to identify antagonists of galanin receptor 2 (GALR2). [Related pubchem assays: 828, 866 ]. In kind it is functional.
Sequence of Galanin receptor type 2 (O43603 whole entry): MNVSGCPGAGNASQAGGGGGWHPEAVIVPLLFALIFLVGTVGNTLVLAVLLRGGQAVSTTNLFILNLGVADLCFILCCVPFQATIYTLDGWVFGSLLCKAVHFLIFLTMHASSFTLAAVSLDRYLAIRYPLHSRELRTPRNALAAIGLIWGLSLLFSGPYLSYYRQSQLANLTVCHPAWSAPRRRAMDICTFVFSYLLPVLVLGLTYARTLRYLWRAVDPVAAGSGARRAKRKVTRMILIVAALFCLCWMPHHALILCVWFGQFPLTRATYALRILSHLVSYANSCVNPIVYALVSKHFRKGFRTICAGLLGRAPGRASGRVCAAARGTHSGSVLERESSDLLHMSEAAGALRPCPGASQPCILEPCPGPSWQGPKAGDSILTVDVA
Experiment [4] can be described thus: reduction of Shn3 3'UTR-driven luciferase in osteoblasts – cell-based, Clone20 osteoblasts, firefly luciferase, cherry-picked, dose response (AID 624132).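 Note: firefly luciferase luminescence from reporter carrying the Shn3 3'UTR in osteoblasts.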 In kind it is functional.
Experiment [5] can be described thus: non-specific 3'UTR reporter inhibition in Clone20-Shn3RL – cell-based, Renilla luciferase, cherry-picked, counter-screen for Shn3 inhibitor project, dose response (AID 624133). The format is functional.
The nature of experiment [6]: NIH-3T3 fibroblast cytotoxicity, dose response, cytotoxicity control, cell-based, fluorescence, Alamar Blue, secondary assay (AID 2327).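 Note: NIH-3T3 mouse fibroblasts cultured with fluconazole at 8 µg/mL.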 The format is functional. Background: Resazurin is reduced to fluorescent resorufin, in cell work by metabolically active cells.
Experiment [7] concerns HEK293. As to the kind of experiment: inhibition of NOD1-driven NF-kB reporter – cell-based, luminescence, uHTS, primary screen (AID 1578). The format is functional. The following applies: Homo sapiens.
The test system of experiment [8] is BJ. Put plainly: BJ-TERT fibroblast viability loss – cell-based, RAS-independent, luminescence, dose response (AID 1933). In kind it is functional. The following applies: Homo sapiens.
The test system of experiment [9] is HEK293. Put plainly: cells. The format is functional, cell-based. The conditions noted are these: Homo sapiens.
The test system of experiment [10] is BJ. As to the kind of experiment: cells. The format is functional, cell-based. The following applies: Homo sapiens.
The nature of experiment [11]: fluconazole-exposed Candida albicans growth modulators – fluorescence, retest, confirmation (AID 2467). In kind it is functional, cell-based.
Experiment [12] concerns HEK293. As to the kind of experiment: cells. The format is functional, cell-based. The conditions noted are these: Homo sapiens. This is another data set of the same source.
For experiment [13], the target named is Nucleotide-binding oligomerization domain-containing protein 2 (Homo sapiens, UniProt Q9HC29). As to the kind of experiment: inhibition of NOD2-driven NF-kB reporter – cell-based, luminescence, uHTS, HEK293 (AID 1566). In kind it is functional.
Sequence of Nucleotide-binding oligomerization domain-containing protein 2 (Q9HC29 whole entry, the tested form may be a part): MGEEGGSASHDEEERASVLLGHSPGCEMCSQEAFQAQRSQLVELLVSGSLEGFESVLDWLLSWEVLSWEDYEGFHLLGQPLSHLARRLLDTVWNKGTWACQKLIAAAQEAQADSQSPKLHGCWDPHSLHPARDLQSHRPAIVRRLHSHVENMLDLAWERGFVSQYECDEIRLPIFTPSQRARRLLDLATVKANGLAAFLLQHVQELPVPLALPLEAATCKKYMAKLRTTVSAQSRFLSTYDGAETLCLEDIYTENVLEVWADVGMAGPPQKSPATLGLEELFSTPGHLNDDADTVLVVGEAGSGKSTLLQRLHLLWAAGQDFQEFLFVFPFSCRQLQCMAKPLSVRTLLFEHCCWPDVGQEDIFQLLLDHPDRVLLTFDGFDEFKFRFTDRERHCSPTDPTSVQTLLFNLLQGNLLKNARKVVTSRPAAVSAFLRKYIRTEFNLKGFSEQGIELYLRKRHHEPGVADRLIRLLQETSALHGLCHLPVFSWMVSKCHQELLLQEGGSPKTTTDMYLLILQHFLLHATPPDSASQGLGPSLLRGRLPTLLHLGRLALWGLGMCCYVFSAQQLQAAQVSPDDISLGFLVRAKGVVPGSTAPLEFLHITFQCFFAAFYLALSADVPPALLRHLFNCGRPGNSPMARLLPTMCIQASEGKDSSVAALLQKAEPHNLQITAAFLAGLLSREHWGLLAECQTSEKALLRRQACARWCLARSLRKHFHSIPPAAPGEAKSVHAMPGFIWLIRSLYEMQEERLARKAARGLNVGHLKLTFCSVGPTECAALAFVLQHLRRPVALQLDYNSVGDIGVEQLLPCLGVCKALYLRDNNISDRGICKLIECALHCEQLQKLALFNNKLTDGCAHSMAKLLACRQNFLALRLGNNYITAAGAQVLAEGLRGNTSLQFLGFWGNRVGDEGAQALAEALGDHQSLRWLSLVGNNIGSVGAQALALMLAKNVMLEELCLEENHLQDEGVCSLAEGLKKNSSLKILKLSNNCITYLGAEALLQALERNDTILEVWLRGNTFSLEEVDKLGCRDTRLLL
Experiment [14] has as its system HEK293. As to the kind of experiment: NOD2 signaling inhibitors in MDP-stimulated cells, cell-based, uHTS, luminescence (AID 2001). The format is functional. The following applies: Homo sapiens.
Experiment [15] relates to HEK293. As to the kind of experiment: cells. The following applies: Homo sapiens. The format is functional, cell-based. This is another data set of the same source.
Experiment [16] concerns BJ. Put plainly: BJ-TERT-LT-ST fibroblast viability loss – cell-based, RAS-independent, luminescence, dose response (AID 1935).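 Note: BJ fibroblasts immortalized with TERT plus LT and ST oncogenes.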 The format is functional. The conditions noted are these: Homo sapiens.
Experiment [17] in a line: DRD fibroblast viability loss – cell-based, non-viral oncogenic, luminescence, dose response (AID 1934). In kind it is functional. The conditions noted are these: Homo sapiens.
The target of experiment [18] is T1, Ubiquitin-conjugating enzyme E2 N (Homo sapiens, UniProt P61088).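 Note: Dose-response confirmation in a TR-FRET assay detecting UBC13-driven polyubiquitin chain formation, inhibition measured.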
T1 sequence (P61088 whole entry): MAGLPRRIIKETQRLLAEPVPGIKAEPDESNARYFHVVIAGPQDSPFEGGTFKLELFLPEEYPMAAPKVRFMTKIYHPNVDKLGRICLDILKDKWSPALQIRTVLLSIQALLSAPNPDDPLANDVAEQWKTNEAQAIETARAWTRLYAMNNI
In kind it is functional.

Experiment [19] deals with T2, CAAX prenyl protease 2 (Saccharomyces cerevisiae S288c, UniProt Q03530).
T2 sequence (Q03530 whole entry): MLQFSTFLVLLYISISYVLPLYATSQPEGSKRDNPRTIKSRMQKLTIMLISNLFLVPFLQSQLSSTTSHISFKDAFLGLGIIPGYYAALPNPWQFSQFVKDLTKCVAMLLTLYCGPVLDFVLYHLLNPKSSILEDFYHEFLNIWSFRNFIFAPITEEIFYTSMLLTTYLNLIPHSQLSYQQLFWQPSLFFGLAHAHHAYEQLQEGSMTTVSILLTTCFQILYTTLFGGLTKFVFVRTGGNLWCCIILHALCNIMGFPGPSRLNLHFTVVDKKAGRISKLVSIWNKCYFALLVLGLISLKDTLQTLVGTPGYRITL
The format is biochemical.

Experiment [20] is described as follows: HEK-293T viability loss after treatment – luminescence, T-cell screen hits, cytotoxicity control for TCR NF-kB inhibitor project, dose response (AID 489026).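 Note: cells exposed to compound about 14 hours before the viability readout.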 The format is functional, cell-based.
Experiment [21] deals with CAAX prenyl protease 1 (Saccharomyces cerevisiae S288c, UniProt P47154). Put plainly: yeast CAAX protease Ste24 inhibition – biochemical, S. cerevisiae, plate reader, cherry-pick, dose response (AID 488815).
Sequence of CAAX prenyl protease 1 (P47154 whole entry): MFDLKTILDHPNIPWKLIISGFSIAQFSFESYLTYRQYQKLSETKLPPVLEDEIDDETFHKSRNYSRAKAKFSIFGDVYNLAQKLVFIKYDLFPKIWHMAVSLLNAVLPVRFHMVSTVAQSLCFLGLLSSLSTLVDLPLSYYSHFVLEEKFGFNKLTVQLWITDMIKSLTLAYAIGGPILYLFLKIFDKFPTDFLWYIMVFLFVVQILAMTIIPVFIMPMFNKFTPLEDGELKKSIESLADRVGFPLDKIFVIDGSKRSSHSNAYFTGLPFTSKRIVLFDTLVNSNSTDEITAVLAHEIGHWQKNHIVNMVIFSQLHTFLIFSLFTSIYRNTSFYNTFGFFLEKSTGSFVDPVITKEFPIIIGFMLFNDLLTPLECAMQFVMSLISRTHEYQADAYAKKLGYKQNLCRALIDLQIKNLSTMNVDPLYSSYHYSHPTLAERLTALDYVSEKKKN
The target of experiment [22] is Heat shock protein HSP 90-alpha (Homo sapiens, UniProt P07900). The format is functional, organism-based.
In experiment [23] the target is T3, Apoptotic protease-activating factor 1 (Homo sapiens, UniProt O14727).
T3 sequence (O14727 whole entry): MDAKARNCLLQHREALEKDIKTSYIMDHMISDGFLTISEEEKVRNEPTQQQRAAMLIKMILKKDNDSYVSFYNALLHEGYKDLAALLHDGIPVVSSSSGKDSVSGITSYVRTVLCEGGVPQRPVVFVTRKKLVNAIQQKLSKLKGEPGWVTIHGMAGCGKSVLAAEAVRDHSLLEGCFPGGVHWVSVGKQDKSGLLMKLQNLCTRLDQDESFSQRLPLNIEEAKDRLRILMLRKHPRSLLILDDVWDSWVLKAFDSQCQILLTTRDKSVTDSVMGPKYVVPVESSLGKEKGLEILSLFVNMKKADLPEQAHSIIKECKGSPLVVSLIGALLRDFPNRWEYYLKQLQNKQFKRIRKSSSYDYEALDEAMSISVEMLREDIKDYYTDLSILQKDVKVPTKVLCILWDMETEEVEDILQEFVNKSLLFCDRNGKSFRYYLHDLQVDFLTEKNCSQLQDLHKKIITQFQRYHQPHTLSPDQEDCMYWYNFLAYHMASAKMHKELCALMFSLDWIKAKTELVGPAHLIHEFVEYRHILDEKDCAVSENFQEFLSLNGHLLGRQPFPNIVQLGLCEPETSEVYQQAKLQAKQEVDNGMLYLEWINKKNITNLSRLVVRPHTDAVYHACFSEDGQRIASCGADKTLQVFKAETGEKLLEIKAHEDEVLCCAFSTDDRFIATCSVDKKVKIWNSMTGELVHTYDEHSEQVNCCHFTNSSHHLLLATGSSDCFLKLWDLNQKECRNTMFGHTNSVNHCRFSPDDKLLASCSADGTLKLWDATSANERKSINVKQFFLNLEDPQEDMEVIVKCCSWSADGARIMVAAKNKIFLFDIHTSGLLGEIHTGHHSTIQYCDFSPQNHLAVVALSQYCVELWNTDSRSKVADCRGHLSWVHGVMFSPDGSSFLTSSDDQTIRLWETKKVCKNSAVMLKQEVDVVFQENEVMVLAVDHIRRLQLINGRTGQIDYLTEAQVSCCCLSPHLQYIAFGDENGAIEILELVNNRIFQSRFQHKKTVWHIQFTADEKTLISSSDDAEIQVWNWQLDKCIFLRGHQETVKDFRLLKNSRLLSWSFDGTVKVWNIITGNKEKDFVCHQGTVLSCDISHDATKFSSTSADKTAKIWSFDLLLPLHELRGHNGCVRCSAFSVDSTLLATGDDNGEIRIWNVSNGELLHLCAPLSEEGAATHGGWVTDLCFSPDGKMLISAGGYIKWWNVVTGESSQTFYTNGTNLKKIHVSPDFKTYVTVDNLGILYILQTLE
The format is functional.

The test system of experiment [24] is BJ. Put plainly: growth inhibition of engineered Ras-driven BJ cells – cell-based, alamar blue fluorescence, cherrypicked samples, dose response (AID 2631).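 Note: confirmatory dose-response assay in RAS-dependent BJ fibroblasts engineered with TERT, LT and ST, with cytotoxicity read by fluorescence.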 The conditions noted are these: Homo sapiens. The format is functional.
Experiment [25] has as its system INS1. As to the kind of experiment: INS-1E survival protection against cytokine death – cell-based, luminescence, retest, dose response (AID 449756).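 Note: cell death triggered by IL-1 beta plus TNF-alpha plus IFN-gamma mixture; protective hits raise ATP signal compared with cytokine alone wells.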 The conditions noted are these: Rattus norvegicus. The format is functional.
In experiment [26] the target is Melanocortin receptor 4 (Homo sapiens, UniProt P32245). The format is functional, cell-based.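 Note: Cell-based assay with luminescence read-out, confirmatory dose-response testing for agonist activity of biased ligands at MC4R; human U2OS cells with tagged receptor and beta-arrestin; potency of agonists that increase receptor coupling to beta-arrestin.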
Sequence of Melanocortin receptor 4 (P32245 whole entry): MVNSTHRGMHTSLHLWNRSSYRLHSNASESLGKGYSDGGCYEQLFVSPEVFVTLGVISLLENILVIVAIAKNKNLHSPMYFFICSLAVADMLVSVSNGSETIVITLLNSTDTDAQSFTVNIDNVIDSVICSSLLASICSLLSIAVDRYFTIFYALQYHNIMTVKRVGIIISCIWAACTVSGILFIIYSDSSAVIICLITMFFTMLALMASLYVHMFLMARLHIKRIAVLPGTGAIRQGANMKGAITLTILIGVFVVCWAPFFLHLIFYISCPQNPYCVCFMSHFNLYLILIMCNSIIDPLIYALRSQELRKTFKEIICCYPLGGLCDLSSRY
The target of experiment [27] is T4, DNA repair protein RAD52 homolog (Homo sapiens, UniProt P43351).
T4 sequence (P43351 whole entry): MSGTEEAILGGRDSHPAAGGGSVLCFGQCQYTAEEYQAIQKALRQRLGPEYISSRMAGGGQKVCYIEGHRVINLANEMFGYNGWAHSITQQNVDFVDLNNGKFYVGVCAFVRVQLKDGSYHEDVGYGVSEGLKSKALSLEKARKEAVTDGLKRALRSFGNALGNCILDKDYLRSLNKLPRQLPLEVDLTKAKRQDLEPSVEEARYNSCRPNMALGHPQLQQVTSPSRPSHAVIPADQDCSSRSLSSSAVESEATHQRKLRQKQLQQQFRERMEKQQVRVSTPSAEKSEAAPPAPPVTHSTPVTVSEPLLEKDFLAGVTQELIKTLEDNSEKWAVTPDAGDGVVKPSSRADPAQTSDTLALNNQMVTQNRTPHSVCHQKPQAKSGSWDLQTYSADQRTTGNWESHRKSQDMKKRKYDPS
The format is functional, biochemical.

For `COC(=O)c1ccc(COC(=O)c2[nH]c(C)c(C(C)=O)c2C)o1`, the IC50 in [1] is 2.72 µM (active); in experiment [2] it was 3.23 µM (active); in [3], > 42 µM (not active). The AC50 in experiment [4] was 2.58 µM (active); in experiment [5], 2.46 µM (active).

As for `CCC(C)(C)c1ccc(OCCCC[n+]2cccc(C)c2C)c(C(C)(C)CC)c1`, the EC50 is > 160 µM (inactive) in experiment [6]; 4.56 µM (active) in [7]; 3.96 µM (inconclusive) in [8]; 4.18 µM (inconclusive) in experiment [10]; 0.67 µM (active) in experiment [11]; 8.15 µM (active) in experiment [13]. In addition, the EC50 is 5.09 µM (active) in experiment [16], 5.62 µM (active) in experiment [17], 2.48 µM (active) in experiment [24] and > 3.3 µM (active) in [26]. The IC50 is 3.2 µM (active) in experiment [9]; 6.37 µM (active) in [12]; 2.48 µM (active) in experiment [14]; > 20 µM (inactive) in [15]; > 20 µM (inactive) in experiment [18]; 56.1 µM (inactive) in experiment [20]. In addition, in experiment [23], the IC50 was 20.2 µM (active). For the same molecule, the AC50 in experiment [19] is 8.03 µM (active); in [21], 9.82 µM (active); in experiment [22], 5.38 µM (active); in [25], 0.632 µM (active); in experiment [27], 31.2 µM (active).

By IC50 is commonly meant the point on the concentration scale where inhibition reaches its midpoint. Broadly, the AC50 is the concentration at which the activity in the assay is half-maximal. For orientation: EC50 means the concentration giving half of the maximal effect.
